Measurements taken from publication PMC8548882, “The Trp-rich Antimicrobial Amphiphiles With Intramolecular Aromatic Interactions for the Treatment of Bacterial Infection” (Frontiers in Microbiology, 2021).
Converted amounts (≈) assume the structure as drawn. Read-outs that look alike come from different tables or passages of the source. Ends that are not written are not given here.

How the values were obtained:
S.typhimurium 7731 = assay type: cell-based, Salmonella enterica serovar typhimurium C77-31
Excerpt: (§1) The tested strains were kindly provided by the laboratory of Veterinary Microbiology and Immunology, the College of Veterinary Medicine, Northeast Agricultural University (gram-negative bacteria, Salmonella enterica serovar typhimurium C77-31, Salmonella typhimurium ATCC 14028, Escherichia coli ATCC 25922, Pseudomonas aeruginosa ATCC 27853 and gram-positive bacteria, Staphylococcus aureus ATCC 29213, Staphylococcus aureus ATCC 43300, Staphylococcus epidermidis ATCC 12228, Staphylococcus aureus ATCC 25923).

RAW 264.7 cells = assay type: cell-based, murine; settings: RAW264.7; ratio of IC50 to GM
Method: (§2) The MTT (3-[4,5 dimethylthiozol-2-yl]-2,5-diphenylterazoliumbromide) dye was selected to analyze the cytotoxicity of peptides against the murine macrophage cell RAW 264.7 (National Collection of Authenticated Cell Cultures, Shanghai, China), human embryonic kidneys (HK293T), and the porcine intestinal epithelial cells (IPEC-J2) as in our previously study ([Li et al., 2020]). In short, the cells (10^4 cells/well) were seeded into 96-well plates and were cultivated overnight. Then the peptides with different final concentration (2μM, 4μM, 8μM, 16μM, 32μM, 64μM, and 128μM) were introduced into the plate and challenged with cells for 24h. After overnight incubation, the 50μl MTT (0.5mg/ml) was added into the cell cultures for 4h. Then the plate was centrifuged to discard the supernatants and obtain the formazan crystals. The DMSO (dimethyl sulfoxide) was employed as a solvent to dissolve the formazan crystals on the bottom of the plate and the optical density was read at 492nm with a microplate reader.

S.aureus 25923 = assay type: cell-based, Staphylococcus aureus ATCC 25923
Excerpt: as §1
(§3) The famous microtiter dilution, National Committee for Clinical Laboratory Standards, was adopted to measure the antimicrobial ability of the engineering peptides ([Chou et al., 2016]). In brief, the 50μl with serial dilution was incubated with the same volume bacteria (1×10^5CFU/ml in midi-logarithmic phase) in a 96-well plate 18–24h at 37°C. The positive control was the bacteria treated with culture medium and the negative control was merely culture medium. The MICs (minimum inhibitory concentrations) were defined as the lowest concentration of peptides that prevented the production of visible turbidity ([Tossi et al., 2000]).

[1] = test system: panel of gram-negative and gram-positive bacteria; settings: over the eight strains of Table 2
Method: as §3

P.aeruginosa 27853 = assay type: cell-based, Pseudomonas aeruginosa ATCC 27853
Excerpt: as §1, §3

[2] = test system: human red blood cells (hRBCs); assay: Hemolytic activity; assay type: cell-based; settings: for HC5 (MHC), lowest concentration that caused 5% hemolysis: hRBC in PBS pH 7.2, 1h at 37°C, absorbance 570nm, vs 0.1% Triton X-100, highest test concentration 128μM; for Therapeutic index (TI): hRBC, ratio of MHC to GM
Excerpt: The hemolytic activity of peptides was reflected by the releasing amount of hemoglobin from erythrocytes lysis induced by peptides ([Dong et al., 2014a]). The informed consent was obtained from the volunteers (3 healthy 25-year-old male volunteers) before the experiment. In brief, the human red blood cells (hRBCs), donated by volunteer, were collected, washed, and resuspended in PBS at pH 7.2. The peptides were serially diluted in PBS at different concentrations in a 96-well cell cultures plate and incubated with 50μl hRBCs for 1h at 37°C. The 0.1% Trition X-100 was selected as the treatment of positive control and the negative control was the hRBCs treated with PBS. After 1h incubation, the supernatant, obtained by centrifuging the plate 1,000g for 5min, was transferred to a brand-new plate for absorbance detection at 570nm. The releasing amount of hemoglobin was converted to the percent hemolysis against to 0.1% Triton X-100 treatment. The lowest concentration caused 5% hemolysis of hRBCs and was defined as the lowest hemolytic concentration of antimicrobial peptide.

S.aureus 29213 = assay type: cell-based, Staphylococcus aureus ATCC 29213
Excerpt: as §1, §3

MRSA 43300 = assay type: cell-based, Staphylococcus aureus ATCC 43300; settings: microtiter dilution, 1×10^5CFU/ml, 18–24h at 37°C, visible turbidity
Excerpt: as §1, §3

S.epidermidis 12228 = assay type: cell-based, Staphylococcus epidermidis ATCC 12228
Excerpt: as §1

IPEC-J2 cells = assay type: cell-based, porcine; settings: for Therapeutic index (TI): IPEC-J2, ratio of IC50 to GM
Method: as §2

S.typhimurium 14028 = assay type: cell-based, Salmonella typhimurium ATCC 14028
Excerpt: as §1

E. coli 25922 = assay type: cell-based, Escherichia coli ATCC 25922
Excerpt: as §1

[3] = test system: hRBC, IPEC-J2, HEK 293T, RAW264.7
Method: Besides, the therapeutic index of peptide in the mammalian eukaryotic cell (RAW 264.7, HEK 293T, and IPEC J2) was also calculated to study the biocompatibility of peptides.

HEK 293T cells = assay type: cell-based, human; settings: ratio of IC50 to GM
Method: as §2

[4] = test system: Pseudomonas aeruginosa ATCC 27853; assay: Subcutaneous abscess model; settings: 5mg/kg
[5] = microtiter dilution, 1×10^5CFU/ml, 18–24h at 37°C, visible turbidity

Compound	MIC (S.typhimurium 7731) [µM]	Therapeutic index (TI) (RAW 264.7 cells)	MIC (S.aureus 25923; 25923) [µM]	GMMIC, geometric mean of the MICs [1] [µM]	MIC (P.aeruginosa 27853; 27853) [µM]	HC5 (MHC), lowest concentration that caused 5% hemolysis [2] [µM]	Therapeutic index (TI) [2]	MIC (S.aureus 29213; 29213) [µM]	MIC (MRSA 43300) [µM]	MIC (S.epidermidis 12228) [µM]	Therapeutic index (TI) (IPEC-J2 cells)	MIC (S.typhimurium 14028) [µM]	MIC (E. coli 25922) [µM]	GMTI, geometric mean of TI of various cell lines [3]	Therapeutic index (TI) (HEK 293T cells)	further results
VKKWVKKAVKKWVKKA-NH2 [VW1]	>64	87.91	>64	76.11	32	>128	> 1.68	64	>64	64	120.77	64	64	>35.28	86.82	
VKKLVKKLVKKLVKKA-NH2 [VL3]	32		32		8			16		32		32	16	>122.44		
VKKLVKKLVKKLVKKL-NH2 [VL5]	2	404.20	8	4.76	2	>128	> 26.89	8	8	4	957.83	4	8	>357.80	1574.26	TI (hRBC) fold smaller than VW5 [2]: about 2.8 fold
VKKWVKKWVKKAVKKW-NH2 [VW3]	8	647.10	8	7.34	4	>128	> 17.44	16	8	8	646.97	8	4	>320.73	1449.42	
O=C(O)c1cn(C2CC2)c2cc(N3CCNCC3)c(F)cc2c1=O [ciprofloxacin, reference compound]																IL-1β in serum ([4]; Day 3, ELISA, saline 95.99±4.31): 72.18 ± 3.54 pg/mL; IL-1α in serum ([4]; Day 3, ELISA, saline 99.95±4.71): 80.08 ± 4.04 pg/mL; TNF-α in serum ([4]; Day 3, ELISA, saline 1020.654±51.08): 773.35 ± 40.55 pg/mL; IL-2 in serum ([4]; Day 3, ELISA, saline 1492.65±48.11): 1250.826 ± 43.60 pg/mL; histological examination of abscess lesion, dermal tissue structures ([4]; HE staining, Day 3): relative integrity
VKKLVKKLVKKAVKKA-NH2 [VL2]	>64	64.03	>64	117.38	64	>128	>1.09	>64	>64	>64	87.76	>64	>64	>25.74	71.65	
VKKWVKKWVKKWVKKA-NH2 [VW4]	2	1855.65	4	3.36	2	>128	> 38.1	4	4	4	1855.95	4	4	>775.15	2751.71	
VKKWVKKWVKKAVKKA-NH2 [VW2]	64	136.50	64	41.50	8	>128	> 3.08	64	64	64	136.45	64	8	>53.63	144.05	
CC[C@H](C)[C@H](NC(=O)CN)C(=O)NCC(=O)N[C@@H](C)C(=O)N[C@H](C(=O)N[C@@H](CC(C)C)C(=O)N[C@@H](CCCCN)C(=O)N[C@H](C(=O)N[C@@H](CC(C)C)C(=O)N[C@H](C(=O)N[C@H](C(=O)NCC(=O)N[C@@H](CC(C)C)C(=O)N1CCC[C@H]1C(=O)N[C@@H](C)C(=O)N[C@@H](CC(C)C)C(=O)N[C@H](C(=O)N[C@@H](CO)C(=O)N[C@@H](Cc1c[nH]c2ccccc12)C(=O)N[C@H](C(=O)N[C@@H](CCCCN)C(=O)N[C@@H](CCCNC(=N)N)C(=O)N[C@@H](CCCCN)C(=O)N[C@@H](CCCNC(=N)N)C(=O)N[C@@H](CCC(N)=O)C(=O)N[C@@H](CCC(N)=O)C(N)=O)[C@@H](C)CC)[C@@H](C)CC)[C@@H](C)O)[C@@H](C)O)C(C)C)C(C)C [Melittin, reference compound]				1.68					4 (≈ 11.4 µg/mL)							MIC (S.aureus 25923; [5]): 2 µM (≈ 5.69 µg/mL); MIC (P.aeruginosa 27853; [5]): 2 µM (≈ 5.69 µg/mL); MIC (S.aureus 29213; [5]): 4 µM (≈ 11.4 µg/mL); cell viability (IPEC-J2 cells; IPEC J2, MTT, 24h, 32μM): below 5%; IC50 (IPEC-J2 cells; IPEC-J2, MTT, 24h, tested 2–128μM): 3.34 µM; GMTI, geometric mean of TI of various cell lines ([3]; hRBC, IPEC-J2, HEK 293T, RAW264.7): 1.71
VKKLVKKLVKKAVKKL-NH2 [VL4]	16		16		8			16		32		32	16	>104.47		
